Test system: 624824-186-R-J2-PDC multicell spheroids, viability
Experiment: Anticancer human tumor 624824-186-R-J2-PDC patient-derived colon adenocarcinoma cell line growth inhibition [PI3K]
Conditions: for IC50: curve of first compound; for viability, T/C: stronger effect = lower value
Text: Combinatorial screen of targeted agents with the PI3K inhibitors inavolisib, alpelisib, duvelisib, and copanlisib in multi-cell type tumor spheroids
A high-throughput screen of multi-cell type tumor spheroids was designed to identify active combinations of targeted small molecules and PI3K pathway inhibitors. Complex spheroids include a stromal component modeled by human endothelial cells (HUVEC) and fibroblasts modeled by human mesenchymal stem cells (MSCs). The concentration ranges selected for each drug and investigational agent were based upon clinically achievable concentrations if the clinical Cmax of the agent was known.
Compounds. The drugs and investigational agents: inavolisib (NSC800729), alpelisib (NSC765974), duvelisib (NSC772469), copanlisib (NSC816437), ipatasertib (NSC767898), afuresertib (NSC778305), talazoparib (NSC767125), sapanisertib (NSC764658), selumetinib (NSC741078), tovorafenib (DAY101, NSC766906), vemurafenib (NSC761431), ravoxertinib (NSC781343), sotorasib (NSC818433), MRTX1133 (NSC 836407), abemaciclib (NSC 768073), palbociclib (NSC758247), venetoclax (NSC 766270), SY5609 (NSC837396), enzalutamide (NSC755605), and darolutamide (NSC825331), were obtained from the National Cancer Institute (NCI) Developmental Therapeutics Program Chemical Repository. The FDA-approved anticancer drug set is available from the NCI Developmental Therapeutics Program. […] The stock solutions were prepared in dimethyl sulfoxide (DMSO, Sigma-Aldrich, St. Louis, MO, cat. D2650) at 800-fold the tested concentration and stored at -70 degrees C prior to their use. All drugs and investigational agents were tested over a range starting from a high concentration at or near the clinical Cmax and decreasing in half-log increments. If the clinical Cmax for an agent had not been determined, the highest concentration tested was 10 microM.
Cell Culture. All cells were maintained in an incubator at 37 degrees C and 5% CO2 with 95% humidity. The PDC lines were cultured according to standard operating procedures established by the NCI PDMR (https://pdmr.cancer.gov/sops/default.htm). All PDCs were thawed and cultured in Matrigel-coated flasks prepared with a working solution of 1X Ham's F-12 nutrient mix, without supplementation (Invitrogen, Waltham, MA, cat. 11765054), 100 U/mL penicillin-streptomycin (Invitrogen, cat. 15140122), and 2.5% Matrigel (Corning Inc., Corning, NY, cat. 354248) for the first three passages. The 354836-022-R-J1-PDC, 475296-252-R-J1-PDC, and 997726-040-R-J2-PDC lines were cultured in 6A media, which includes advanced DMEM/F-12 (Thermo Fisher Scientific, cat. 12634028), 10 mM HEPES (Thermo Fisher Scientific, cat. 15630080), 1X GlutaMAX supplement (Thermo Fisher Scientific, cat. 35050061), 0.1 mg/mL primocin (InvivoGen, San Diego, CA, cat. ant-pm-2), 10% defined fetal bovine serum, heat inactivated (HyClone Laboratories Inc., Logan, UT, cat. SH30070.03HI), 50% L-WRN conditioned media (ATCC, cat. CRL-3276), 1.25 mM N-Acetyl-L-cysteine (Sigma-Aldrich, cat. A9165), 10 mM nicotinamide (Sigma-Aldrich, cat. N0636), 1X B-27 supplement (Thermo Fisher Scientific, cat. 17504044), 1X N-2 supplement (Thermo Fisher Scientific, cat. 17502048), and 10 microM Y-27632 dihydrochloride (Tocris Bioscience, Bristol, United Kingdom, cat. 1254). The 624824-186-R-J2-PDC line was cultured in 6C/Colon 1B media, which includes all 6A media components plus 50 ng/mL human EGF recombinant protein (Thermo Fisher Scientific, cat. PHG0311). […]

[1] = second compound 0.00316 µM, first compound 0.0316 µM
[2] = second compound 0.00316 µM, first compound 0.1 µM
[3] = second compound 0.01 µM, first compound 0.0316 µM
[4] = second compound 0.01 µM, first compound 0.1 µM
[5] = second compound 0.0316 µM, first compound 0.0316 µM
[6] = second compound 0.0316 µM, first compound 0.1 µM
[7] = second compound 0.1 µM, first compound 0.0316 µM
[8] = second compound 0.1 µM, first compound 0.1 µM
[9] = second compound 0.316 µM, first compound 0.0316 µM
[10] = second compound 0.316 µM, first compound 0.1 µM
[11] = second compound 1 µM, first compound 0.0316 µM
[12] = second compound 1 µM, first compound 0.1 µM
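Note: spheroids exposed to agents for 7 days before viability read.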
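Throughout, for viability, T/C: 100% = DMSO vehicle treated spheroids.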

SMILES: CC(C)n1nc(-c2ccc3oc(N)nc3c2)c2c(N)ncnc21 + CC(Nc1ccc2c(c1)OCCn1cc(N3C(=O)OCC3C(F)F)nc1-2)C(N)=O
- IC50 (second compound 0.00316 µM): > 0.1 µM
- IC50 (second compound 0.01 µM): > 0.1 µM
- IC50 (second compound 0.0316 µM): > 0.1 µM
- IC50 (second compound 0.1 µM): > 0.1 µM
- IC50 (second compound 0.316 µM): > 0.1 µM
- IC50 (second compound 1 µM): > 0.1 µM
- viability, T/C (second compound 0.00316 µM, first compound 0.000316 µM): 74%
- viability, T/C (second compound 0.00316 µM, first compound 0.001 µM): 86.9%
- viability, T/C (second compound 0.00316 µM, first compound 0.00316 µM): 95.5%
- viability, T/C (second compound 0.00316 µM, first compound 0.01 µM): 92.1%
- viability, T/C [1]: 89.2%
- viability, T/C [2]: 87.5%
- viability, T/C (second compound 0.01 µM, first compound 0.000316 µM): 106%
- viability, T/C (second compound 0.01 µM, first compound 0.001 µM): 110%
- viability, T/C (second compound 0.01 µM, first compound 0.00316 µM): 107%
- viability, T/C (second compound 0.01 µM, first compound 0.01 µM): 86.8%
- viability, T/C [3]: 105%
- viability, T/C [4]: 87.2%
- viability, T/C (second compound 0.0316 µM, first compound 0.000316 µM): 83.5%
- viability, T/C (second compound 0.0316 µM, first compound 0.001 µM): 81.4%
- viability, T/C (second compound 0.0316 µM, first compound 0.00316 µM): 67.6%
- viability, T/C (second compound 0.0316 µM, first compound 0.01 µM): 78.1%
- viability, T/C [5]: 91.9%
- viability, T/C [6]: 90.4%
- viability, T/C (second compound 0.1 µM, first compound 0.000316 µM): 88.3%
- viability, T/C (second compound 0.1 µM, first compound 0.001 µM): 96.8%
- viability, T/C (second compound 0.1 µM, first compound 0.00316 µM): 96.8%
- viability, T/C (second compound 0.1 µM, first compound 0.01 µM): 68.4%
- viability, T/C [7]: 84.5%
- viability, T/C [8]: 92.5%
- viability, T/C (second compound 0.316 µM, first compound 0.000316 µM): 74.9%
- viability, T/C (second compound 0.316 µM, first compound 0.001 µM): 96.1%
- viability, T/C (second compound 0.316 µM, first compound 0.00316 µM): 78.7%
- viability, T/C (second compound 0.316 µM, first compound 0.01 µM): 72.3%
- viability, T/C [9]: 82.2%
- viability, T/C [10]: 75.4%
- viability, T/C (second compound 1 µM, first compound 0.000316 µM): 97%
- viability, T/C (second compound 1 µM, first compound 0.001 µM): 78.9%
- viability, T/C (second compound 1 µM, first compound 0.00316 µM): 85%
- viability, T/C (second compound 1 µM, first compound 0.01 µM): 88.5%
- viability, T/C [11]: 84.1%
- viability, T/C [12]: 72%

SMILES: CCCS(=O)(=O)Nc1ccc(F)c(C(=O)c2c[nH]c3ncc(-c4ccc(Cl)cc4)cc23)c1F + CC(Nc1ccc2c(c1)OCCn1cc(N3C(=O)OCC3C(F)F)nc1-2)C(N)=O
- IC50 (second compound 0.00316 µM): 10 µM
- IC50 (second compound 0.01 µM): 8.49 µM
- IC50 (second compound 0.0316 µM): 7.85 µM
- IC50 (second compound 0.1 µM): 6.22 µM
- IC50 (second compound 0.316 µM): 4.65 µM
- IC50 (second compound 1 µM): 3.58 µM
- viability, T/C [1]: 78.1%
- viability, T/C [2]: 112%
- viability, T/C (second compound 0.00316 µM, first compound 0.316 µM): 87.8%
- viability, T/C (second compound 0.00316 µM, first compound 1 µM): 119%
- viability, T/C (second compound 0.00316 µM, first compound 3.16 µM): 113%
- viability, T/C (second compound 0.00316 µM, first compound 10 µM): 50%
- viability, T/C [3]: 92.7%
- viability, T/C [4]: 89.7%
- viability, T/C (second compound 0.01 µM, first compound 0.316 µM): 73.6%
- viability, T/C (second compound 0.01 µM, first compound 1 µM): 82.7%
- viability, T/C (second compound 0.01 µM, first compound 3.16 µM): 109%
- viability, T/C (second compound 0.01 µM, first compound 10 µM): 43.5%
- viability, T/C [5]: 82.7%
- viability, T/C [6]: 88.3%
- viability, T/C (second compound 0.0316 µM, first compound 0.316 µM): 73.5%
- viability, T/C (second compound 0.0316 µM, first compound 1 µM): 89.1%
- viability, T/C (second compound 0.0316 µM, first compound 3.16 µM): 108%
- viability, T/C (second compound 0.0316 µM, first compound 10 µM): 39.7%
- viability, T/C [7]: 80%
- viability, T/C [8]: 89.8%
- viability, T/C (second compound 0.1 µM, first compound 0.316 µM): 81.9%
- viability, T/C (second compound 0.1 µM, first compound 1 µM): 72.3%
- viability, T/C (second compound 0.1 µM, first compound 3.16 µM): 76.3%
- viability, T/C (second compound 0.1 µM, first compound 10 µM): 32.7%
- viability, T/C [9]: 67.9%
- viability, T/C [10]: 78.5%
- viability, T/C (second compound 0.316 µM, first compound 0.316 µM): 71.7%
- viability, T/C (second compound 0.316 µM, first compound 1 µM): 68%
- viability, T/C (second compound 0.316 µM, first compound 3.16 µM): 62.1%
- viability, T/C (second compound 0.316 µM, first compound 10 µM): 26.8%
- viability, T/C [11]: 80.5%
- viability, T/C [12]: 68.6%
- viability, T/C (second compound 1 µM, first compound 0.316 µM): 68.7%
- viability, T/C (second compound 1 µM, first compound 1 µM): 53.2%
- viability, T/C (second compound 1 µM, first compound 3.16 µM): 63.1%
- viability, T/C (second compound 1 µM, first compound 10 µM): 23.8%

From PubChem BioAssay AID1963975 (Molecular Pharmacology Branch, DTP, NCI, 2024)
